Tests used:
Type in all cases: in vivo
[1] = system: barnyardgrass (Echinochloa crus-galli); assay: Test A pre-/postemergence plant response; conditions: for Barnyardgrass plant response rating: visual injury, 0 to 100 scale (0 no effect, 100 complete control), approx. ten days
In short: (§1)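 Visually rated 0–100 injury (100 = complete control) versus untreated plants, ~10 days in greenhouse. Application pre- (soil spray, loam/sand) and postemergence (2–10 cm, 1–2 leaf stage), same timepoint.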

corn (Zea mays) = assay: Test A pre-/postemergence plant response; conditions: for Corn plant response rating: visual injury, 0 to 100 scale (0 no effect, 100 complete control), approx. ten days
In short: as §1

[2] = system: giant foxtail (Setaria faberii); assay: Test A pre-/postemergence plant response
In short: as §1

[3] = system: large crabgrass (Digitaria sanguinalis); assay: Test A pre-/postemergence plant response; conditions: for Crabgrass, Large plant response rating: visual injury, 0 to 100 scale (0 no effect, 100 complete control), approx. ten days
In short: as §1

[4] = system: morningglory (Ipomoea spp.); assay: Test A pre-/postemergence plant response
In short: as §1

[5] = system: pigweed (Amaranthus retroflexus); assay: Test A pre-/postemergence plant response
In short: as §1

[6] = system: velvetleaf (Abutilon theophrasti); assay: Test A pre-/postemergence plant response
In short: as §1

[7] = system: wheat (Triticum aestivum); assay: Test A pre-/postemergence plant response
In short: as §1

[8] = system: barnyardgrass (Echinochloa crus-galli); assay: Test B flooded paddy test; conditions: for Plant response rating, Flood, Barnyardgrass: 250 g ai/ha, flooded paddy test, visual rating on 0 to 100 scale (0 no effect, 100 complete control) after 13 to 15 days; for Plant response rating, Barnyardgrass: Flood (flooded paddy test), 13 to 15 days; for Barnyardgrass plant response rating: Flood, 31 g ai/ha, scale 0 to 100 (0 no effect, 100 complete control)
In short: (§2)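 Each compound is added to standing floodwater (3 cm above soil, maintained) in pots of 2-leaf-stage plants; greenhouse exposure lasts 13–15 d before visual comparison with controls on a 0–100 control scale.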

[9] = system: ducksalad (Heteranthera limosa); assay: Test B flooded paddy test; conditions: for Plant response rating, Flood, Ducksalad: 250 g ai/ha, flooded paddy test, visual rating on 0 to 100 scale (0 no effect, 100 complete control) after 13 to 15 days; for Plant response rating, Ducksalad: Flood (flooded paddy test), 13 to 15 days; for Ducksalad plant response rating: Flood, 31 g ai/ha, scale 0 to 100 (0 no effect, 100 complete control)
In short: as §2

rice (Oryza sativa) = assay: Test B flooded paddy test; conditions: for Plant response rating, Flood, Rice: 250 g ai/ha, flooded paddy test, visual rating on 0 to 100 scale (0 no effect, 100 complete control) after 13 to 15 days; for Plant response rating, Rice: Flood (flooded paddy test), 13 to 15 days; for Rice plant response rating: Flood, 31 g ai/ha, scale 0 to 100 (0 no effect, 100 complete control)
In short: as §2

[10] = system: umbrella sedge (Cyperus difformis); assay: Test B flooded paddy test; conditions: for Plant response rating, Flood, Sedge, Umbrella: 250 g ai/ha, flooded paddy test, visual rating on 0 to 100 scale (0 no effect, 100 complete control) after 13 to 15 days; for Plant response rating, Sedge, Umbrella: Flood (flooded paddy test), 13 to 15 days; for Sedge, Umbrella plant response rating: Flood, 31 g ai/ha, scale 0 to 100 (0 no effect, 100 complete control)
In short: as §2

[11] = Postemergence, 125 g ai/ha, 0 to 100 scale where 0 is no effect and 100 is complete control
[12] = Preemergence, 125 g ai/ha, 0 to 100 scale where 0 is no effect and 100 is complete control, approximately ten days
[13] = Preemergence, 500 g ai/ha, 0 to 100 scale, 0 = no effect, 100 = complete control
[14] = Postemergence, 125 g ai/ha, visual injury, 0 to 100 scale (0 no effect, 100 complete control), approx. ten days
[15] = Postemergence, 500 g ai/ha, visual injury, 0 to 100 scale (0 no effect, 100 complete control), approx. ten days
[16] = 62 g ai/ha, scale of 0 to 100 where 0 is no effect and 100 is complete control
[17] = 125 g ai/ha, scale 0 to 100, 0 is no effect, 100 is complete control

O=C(C1=C(O)C2CCC(C2)C1=O)c1cnc(-c2cccc(Br)c2)n(C2CCCCC2)c1=O (stereo not drawn) [Compound 252]
40: Plant response rating, Foxtail, Giant [2, 14] | Plant response rating, Pigweed [5, 13]
20: Plant response rating, Crabgrass, Large [3, 13] | Plant response rating, Velvetleaf [6, 12]
0: Plant response rating, Barnyardgrass [1, 12] | Plant response rating, Barnyardgrass [1, 13] | Plant response rating, Corn (corn (Zea mays); [11]) | Plant response rating, Corn (corn (Zea mays); [12]) | Plant response rating, Corn (corn (Zea mays); [13]) | Plant response rating, Foxtail, Giant [2, 12] | Plant response rating, Morningglory [4, 12] | Plant response rating, Pigweed [5, 12] | Plant response rating, Wheat [7, 14] | Plant response rating, Wheat [7, 12] | Plant response rating, Wheat [7, 13] | Plant response rating, Flood, Barnyardgrass [8] | Plant response rating, Barnyardgrass [8, 16] | Plant response rating, Flood, Ducksalad [9] | Plant response rating, Ducksalad [9, 16] | Plant response rating, Flood, Rice (rice (Oryza sativa)) | Plant response rating, Rice (rice (Oryza sativa); [16]) | Plant response rating, Flood, Sedge, Umbrella [10] | Plant response rating, Sedge, Umbrella [10, 16]
60: Foxtail, Giant plant response rating [2, 15] | Crabgrass, Large plant response rating ([3]; Postemergence, 500 g ai/ha)
50: Plant response rating, Velvetleaf [6, 13]
100: Morningglory plant response rating [4, 15]
90: Barnyardgrass plant response rating ([1]; Postemergence, 500 g ai/ha) | Pigweed plant response rating [5, 15] | Velvetleaf plant response rating [6, 15]
10: Corn plant response rating (corn (Zea mays); Postemergence, 500 g ai/ha) | Plant response rating, Foxtail, Giant [2, 13] | Plant response rating, Crabgrass, Large [3, 12] | Plant response rating, Morningglory [4, 13] | Wheat plant response rating [7, 15]
80: Plant response rating, Barnyardgrass [1, 11] | Plant response rating, Morningglory [4, 14]
30: Plant response rating, Crabgrass, Large [3, 11]
70: Plant response rating, Pigweed [5, 14] | Plant response rating, Velvetleaf [6, 14]

O=C(C1=C(O)C2CCC(C2)C1=O)c1cnc(-c2ccccc2)n(C2CCCCCC2)c1=O (stereo not drawn) [Compound 253]
80: Plant response rating, Crabgrass, Large [3, 11] | Plant response rating, Crabgrass, Large [3, 13] | Plant response rating, Pigweed [5, 13]
85: Plant response rating, Ducksalad [9, 17] | Plant response rating, Flood, Sedge, Umbrella [10]
10: Plant response rating, Barnyardgrass [1, 12] | Plant response rating, Corn (corn (Zea mays); [11])
90: Plant response rating, Pigweed [5, 14] | Plant response rating, Velvetleaf [6, 13] | Plant response rating, Flood, Ducksalad [9]
65: Plant response rating, Sedge, Umbrella [10, 16]
20: Plant response rating, Barnyardgrass [1, 13] | Plant response rating, Foxtail, Giant [2, 12] | Plant response rating, Pigweed [5, 12] | Wheat plant response rating [7, 15] | Plant response rating, Wheat [7, 13] | Plant response rating, Flood, Barnyardgrass [8] | Plant response rating, Flood, Rice (rice (Oryza sativa))
60: Plant response rating, Foxtail, Giant [2, 14] | Ducksalad plant response rating [9] | Sedge, Umbrella plant response rating [10]
50: Plant response rating, Velvetleaf [6, 12]
0: Plant response rating, Corn (corn (Zea mays); [12]) | Plant response rating, Wheat [7, 14] | Plant response rating, Wheat [7, 12] | Plant response rating, Barnyardgrass [8, 16] | Plant response rating, Barnyardgrass [8, 17] | Barnyardgrass plant response rating [8] | Plant response rating, Rice (rice (Oryza sativa); [16]) | Plant response rating, Rice (rice (Oryza sativa); [17]) | Rice plant response rating (rice (Oryza sativa))
75: Plant response rating, Ducksalad [9, 16] | Plant response rating, Sedge, Umbrella [10, 17]
40: Corn plant response rating (corn (Zea mays); Postemergence, 500 g ai/ha) | Plant response rating, Morningglory [4, 12]
70: Plant response rating, Foxtail, Giant [2, 13] | Plant response rating, Morningglory [4, 13]
100: Plant response rating, Barnyardgrass [1, 11] | Barnyardgrass plant response rating ([1]; Postemergence, 500 g ai/ha) | Foxtail, Giant plant response rating [2, 15] | Crabgrass, Large plant response rating ([3]; Postemergence, 500 g ai/ha) | Plant response rating, Morningglory [4, 14] | Morningglory plant response rating [4, 15] | Pigweed plant response rating [5, 15] | Plant response rating, Velvetleaf [6, 14] | Velvetleaf plant response rating [6, 15]
30: Plant response rating, Crabgrass, Large [3, 12]

COc1ccc(-n2c(-c3ccccc3)ncc(C(=O)C3=C(O)CCCC3=O)c2=O)c(OC)c1 [Compound 256]
0: Plant response rating, Barnyardgrass [1, 12] | Plant response rating, Corn (corn (Zea mays); [11]) | Plant response rating, Corn (corn (Zea mays); [12]) | Plant response rating, Corn (corn (Zea mays); [13]) | Plant response rating, Foxtail, Giant [2, 12] | Plant response rating, Morningglory [4, 12] | Plant response rating, Pigweed [5, 12] | Plant response rating, Wheat [7, 14] | Wheat plant response rating [7, 15] | Plant response rating, Wheat [7, 12] | Plant response rating, Wheat [7, 13] | Plant response rating, Flood, Barnyardgrass [8] | Plant response rating, Barnyardgrass [8, 16] | Plant response rating, Barnyardgrass [8, 17] | Barnyardgrass plant response rating [8] | Plant response rating, Flood, Rice (rice (Oryza sativa)) | Plant response rating, Rice (rice (Oryza sativa); [16]) | Plant response rating, Rice (rice (Oryza sativa); [17]) | Rice plant response rating (rice (Oryza sativa))
90: Barnyardgrass plant response rating ([1]; Postemergence, 500 g ai/ha) | Plant response rating, Pigweed [5, 14] | Plant response rating, Pigweed [5, 13]
70: Plant response rating, Barnyardgrass [1, 13] | Foxtail, Giant plant response rating [2, 15]
20: Plant response rating, Foxtail, Giant [2, 14] | Plant response rating, Velvetleaf [6, 12]
10: Corn plant response rating (corn (Zea mays); Postemergence, 500 g ai/ha) | Plant response rating, Crabgrass, Large [3, 12]
40: Plant response rating, Barnyardgrass [1, 11] | Plant response rating, Ducksalad [9, 16] | Plant response rating, Sedge, Umbrella [10, 16]
75: Plant response rating, Flood, Sedge, Umbrella [10] | Plant response rating, Sedge, Umbrella [10, 17]
50: Plant response rating, Morningglory [4, 13]
100: Pigweed plant response rating [5, 15] | Plant response rating, Velvetleaf [6, 14] | Velvetleaf plant response rating [6, 15]
85: Plant response rating, Flood, Ducksalad [9]
80: Crabgrass, Large plant response rating ([3]; Postemergence, 500 g ai/ha) | Plant response rating, Crabgrass, Large [3, 13] | Morningglory plant response rating [4, 15] | Plant response rating, Velvetleaf [6, 13] | Plant response rating, Ducksalad [9, 17]
30: Plant response rating, Foxtail, Giant [2, 13] | Plant response rating, Crabgrass, Large [3, 11] | Plant response rating, Morningglory [4, 14] | Ducksalad plant response rating [9] | Sedge, Umbrella plant response rating [10]
